Measured values reported in patent US6187772A, “Pyrroloazepine compounds” (Suntory Limited, priority 1997, dated 2001).

Experiments:
α1 = test: Anti-α1 action (contraction of guinea pig thoracic aorta induced by norepinephrine); format: cell-based, Hartley male guinea pig; conditions: tonic contraction induced by 10^-5 M norepinephrine = 100%, helical thoracic aorta preparation, Tyrode solution, 37° C; for Anti α1 action (% of Control), 10^-7 M: test drug 10^-7 M, 0.1 µM; for Anti α1 action (% of Control), 10^-8 M: test drug 10^-8 M, 0.01 µM
Method: (§1) With respect to the compounds of the present invention, their anti-α1 action and anti-serotonin (5-HT) action were investigated by the methods which will be described below.
The thoracic aorta of each Hartley male guinea pig (body weight: 300-500 g) was excised. A preparation cut in a helical form was suspended under 1 g load in a Magnus cylinder filled with the Tyrode solution which had been aerated with a gas mixture of 95% O2 and 5% CO2 and maintained at 37° C. Using an isometric transducer ("TB-612J", manufactured by Nihon Kohden Corporation) and a pressure preamplifier ("AP-620G", manufactured by Nihon Kohden Corporation), variations in tension were measured. The isometric tensions were recorded on a thermal pen-writing recorder ("WT-647G", manufactured by Nihon Kohden Corporation). Taking the tonic contraction induced by 10^-5 M norepinephrine (NE) as 100%, the percent contractions upon addition of each test drug at 10^-8 M and 10^-7 M were determined as anti-α1 action.

serotonin (5-HT) = serotonin (5-HT) (Cavia porcellus, UniProt A0A286Y537); test: Anti-serotonin (5-HT) action (contraction of guinea pig superior mesenteric artery induced by serotonin); format: cell-based, Hartley male guinea pig; conditions: contraction induced by 10^-5 M 5-HT = 100%, helical superior mesenteric artery preparation, Tyrode solution, 37° C; for remaining activity at 1 µM: test drug 10^-6 M, read-out: Anti 5-HT action (% of Control), 10^-6 M; for remaining activity at 0.1 µM: test drug 10^-7 M, read-out: Anti 5-HT action (% of Control), 10^-7 M
Method: as §1
(2) Anti-serotonin (5-HT) action
A preparation cut in a helical form was suspended under restomg tension of 0.3 g in a Magnus cylinder filled with the Tyrode solution which had been aerated with a gas mixture of 95% O2 and 5% CO2 and maintained at 37° C. Using an isometric transducer ("UL-10", manufactured by SHINKOH K.K.) and a pressure preamplifier ("DSA-605A", manufactured by SHINKOH K.K.), variations in tension were measured. The isometric tensions were recorded on a pen-writing recorder ("VP-6537A", manufactured by NATIONAL K.K.). Taking the contraction induced by 10^-5 M serotonin (5-HT) as 100%, the percent contractions by 10^-5 M 5-HT in the presence of each test drug at 10^-8 M, 10^-7 M and 10^-6 M were determined as anti-5-HT action.

Chain of serotonin (5-HT) (A0A286Y537 1-470): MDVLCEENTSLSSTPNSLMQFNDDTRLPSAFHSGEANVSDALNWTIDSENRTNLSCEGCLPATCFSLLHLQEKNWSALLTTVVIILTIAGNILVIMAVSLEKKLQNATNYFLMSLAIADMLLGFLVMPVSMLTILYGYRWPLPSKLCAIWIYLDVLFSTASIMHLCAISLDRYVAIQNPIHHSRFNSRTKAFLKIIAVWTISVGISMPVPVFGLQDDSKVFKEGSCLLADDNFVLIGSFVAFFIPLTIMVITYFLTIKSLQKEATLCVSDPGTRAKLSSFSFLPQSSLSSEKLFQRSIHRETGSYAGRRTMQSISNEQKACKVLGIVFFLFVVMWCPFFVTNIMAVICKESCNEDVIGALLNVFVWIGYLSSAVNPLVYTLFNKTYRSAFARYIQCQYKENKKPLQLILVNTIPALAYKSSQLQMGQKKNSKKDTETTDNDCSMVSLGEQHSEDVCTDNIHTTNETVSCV

Row | Compound | Anti α1 action (% of Control), 10^-7 M (α1) | Anti α1 action (% of Control), 10^-8 M (α1) | remaining activity at 1 µM (serotonin (5-HT)) [%] | remaining activity at 0.1 µM (serotonin (5-HT)) [%] | remaining activity at 0.01 µM (serotonin (5-HT); test drug 10^-8 M, read-out: Anti 5-HT action (% of Control), 10^-8 M) [%]
1 | CN1CCC(=NO)c2cn(CCCCN3CCC(C(=O)c4ccc(F)cc4)CC3)cc2C1=O [Compound No. 21, 2-[4-[4-(4-fluorobenzoyl)piperidino]-butyl]-8-hydroxyimino-5-methyl-2,4,5,6,7,8-hexahydropyrrolo[3,4-c]azepin-4-one] | 36.9 % of Control | 69.7 % of Control | 24.9 | 85.5 | –
2 | CN1CCC(=O)c2c(ccn2CCCCN2CCC(C(=O)c3ccc(F)cc3)CC2)C1=O [Compound No. 15, 1-[4-[4-(4-fluorobenzoyl)piperidino]-butyl]-5-methyl-1,4,5,6,7,8-hexahydropyrrolo[3,2-c]azepine-4,8-dione] | 35.4 % of Control | 59.9 % of Control | 26.6 | 75.3 | –
3 | CN1CCC(=O)c2c(ccn2CCCCN2CCC(c3noc4cc(F)ccc34)CC2)C1=O [Compound No. 17, 1-[4-[4-(6-fluoro-1,2-benzisoxazol-3-yl)piperidino]butyl]-5-methyl-1,4,5,6,7,8-hexahydropyrrolo[3,2-c]azepine-4,8-dione] | 14.0 % of Control | 27.8 % of Control | 8.9 | 55.2 | 80.7
4 | CN1CCC(=O)c2cn(CCCCN3CCC(C(=O)c4ccc(F)cc4)CC3)cc2C1=O [Compound No. 18, 2-[4-[4-(4-fluorobenzoyl)piperidino]-butyl]-5-methyl-2,4,5,6,7,8-hexahydropyrrolo[3,4-c]azepine-4,8-dione] | 37.3 % of Control | 76.0 % of Control | 25.3 | 81.7 | –
